# Source: ChEMBL document CHEMBL5375962 (J Med Chem, 2023)
# What was measured:
# Ketohexokinase [1] = target: T1, Ketohexokinase (Homo sapiens, UniProt P50053); experiment: Inhibition of human KHK-C preincubated for 15 mins followed by substrate addition and measured after 20 mins in presence of ATP by Rapidfire MS analysis
# T1 sequence (P50053 whole entry): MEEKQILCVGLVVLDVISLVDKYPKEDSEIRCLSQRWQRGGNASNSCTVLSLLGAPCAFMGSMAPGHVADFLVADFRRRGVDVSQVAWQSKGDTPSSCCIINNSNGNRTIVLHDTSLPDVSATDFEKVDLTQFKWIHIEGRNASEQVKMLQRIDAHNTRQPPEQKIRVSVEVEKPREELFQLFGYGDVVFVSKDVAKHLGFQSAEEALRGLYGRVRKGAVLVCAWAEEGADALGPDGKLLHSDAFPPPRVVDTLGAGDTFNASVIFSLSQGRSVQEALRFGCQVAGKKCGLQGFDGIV
# Ketohexokinase [2] = target: T1, Ketohexokinase; experiment: Inhibition of KHK in human HepG2 cells incubated for 3 hrs by Rapidfire MS analysis; assay type: cell-based
# [3] = Inhibition of mouse KHK-A
# [4] = Metabolic stability in mouse liver microsomes assessed as compound degradation measured after 30 mins; assay type: ADME, Microsome; conditions: read-out: Drug degradation
# [5] = Metabolic stability in rat liver microsomes assessed as compound degradation measured after 30 mins; assay type: ADME, Microsome; conditions: read-out: Drug degradation
# [6] = Metabolic stability in dog liver microsomes assessed as compound degradation measured after 30 mins; assay type: ADME, Canis lupus familiaris, Microsome; conditions: read-out: Drug degradation
# [7] = Metabolic stability in human liver microsomes assessed as compound degradation measured after 30 mins; assay type: ADME, Microsome; conditions: read-out: Drug degradation
# [8] = Thermodynamic solubility of the compound […] at pH 7.4; assay type: physicochemical; conditions: read-out: Therm_solubility
# Hepatocyte = experiment: Cytotoxicity against rat Primary hepatocyte; assay type: toxicity, cell-based; conditions: hepatocytes
# [9] = Permeability in MDCK cells assessed as drug transport measured over 1 hr in presence of P-gp; assay type: ADME, cell-based, Canis lupus familiaris; conditions: dog
# [10] = Clearance in rat hepatocytes measured per 10^6 cells; assay type: ADME, cell-based, Hepatocyte; conditions: read-out: CLH
# [11] = Clearance in dog hepatocytes measured per 10^6 cells; assay type: ADME, cell-based, Canis lupus familiaris, Hepatocyte; conditions: read-out: CLH
# [12] = Clearance in human hepatocytes measured per 10^6 cells; assay type: ADME, cell-based, Hepatocyte; conditions: read-out: CLH
# [13] = AUC in rat at 1 mg/kg, iv measured after 12 hrs; assay type: ADME, organism-based; design: time 12 hrs, dose 1 mg/kg, route iv; conditions: in vivo
# [14] = Cmax in rat at 1 mg/kg, iv measured after 12 hrs; assay type: ADME, organism-based; design: dose 1 mg/kg, time 12 hrs, route iv; conditions: in vivo
# [15] = Clearance in rat at 1 mg/kg, iv measured after 12 hrs; assay type: ADME, organism-based; conditions: in vivo
# [16] = Half life in rat at 1 mg/kg, iv measured after 12 hrs; assay type: ADME, organism-based; conditions: in vivo
# [17] = Volume of distribution in rat at 1 mg/kg, iv measured after 12 hrs; assay type: ADME, organism-based; conditions: in vivo
# [18] = AUC in dog at 1 mg/kg, iv; assay type: ADME, organism-based, Canis lupus familiaris; design: dose 1 mg/kg, route iv; conditions: in vivo
# [19] = Cmax in dog at 1 mg/kg, iv; assay type: ADME, organism-based, Canis lupus familiaris; design: dose 1 mg/kg, route iv; conditions: in vivo
# [20] = Clearance in dog at 1 mg/kg, iv; assay type: ADME, organism-based, Canis lupus familiaris; conditions: in vivo
# [21] = Half life in dog at 1 mg/kg, iv; assay type: ADME, organism-based, Canis lupus familiaris; conditions: in vivo
# [22] = Volume of distribution in dog at 1 mg/kg, iv; assay type: ADME, organism-based, Canis lupus familiaris; conditions: in vivo
# [23] = Cmax in rat at 2 mg/kg, po measured after 12 hrs; assay type: ADME, organism-based; design: time 12 hrs, dose 2 mg/kg, route po; conditions: in vivo
# [24] = Tmax in rat at 2 mg/kg, po measured after 12 hrs; assay type: ADME, organism-based; conditions: in vivo
# [25] = AUC in rat at 2 mg/kg, po measured after 12 hrs; assay type: ADME, organism-based; design: time 12 hrs, dose 2 mg/kg, route po; conditions: in vivo
# [26] = Half life in rat at 2 mg/kg, po measured after 12 hrs; assay type: ADME, organism-based; conditions: in vivo
# [27] = Oral bioavailability in rat at 2 mg/kg measured after 12 hrs; assay type: ADME, organism-based; conditions: in vivo
# [28] = Cmax in dog at 2 mg/kg, po; assay type: ADME, organism-based, Canis lupus familiaris; design: dose 2 mg/kg, route po; conditions: in vivo
# [29] = Tmax in dog at 2 mg/kg, po; assay type: ADME, organism-based, Canis lupus familiaris; conditions: in vivo
# [30] = AUC in dog at 2 mg/kg, po; assay type: ADME, organism-based, Canis lupus familiaris; design: dose 2 mg/kg, route po; conditions: in vivo
# [31] = Half life in dog at 2 mg/kg, po; assay type: ADME, organism-based, Canis lupus familiaris; conditions: in vivo
# [32] = Oral bioavailability in dog at 2 mg/kg; assay type: ADME, organism-based, Canis lupus familiaris; conditions: in vivo
# [33] = Unbound fraction in mouse plasma at 1 uM; assay type: ADME, cell-free
# [34] = Unbound fraction in rat plasma at 1 uM; assay type: ADME, cell-free
# [35] = Unbound fraction in dog plasma at 1 uM; assay type: ADME, cell-free, Canis lupus familiaris
# [36] = Unbound fraction in human plasma at 1 uM; assay type: ADME, cell-free
# [37] = Drug distribution in mouse kidney at 30 mg/kg, po measured at 180 mins; assay type: ADME, organism-based; conditions: in vivo, 3 h
# [38] = Drug distribution in mouse liver at 30 mg/kg, po measured at 180 mins; assay type: ADME, organism-based; conditions: in vivo, 3 h
# [39] = Drug distribution in mouse heart at 30 mg/kg, po measured at 180 mins; assay type: ADME, organism-based; conditions: in vivo, 3 h
# Mus musculus = experiment: Reduction in fructose level in 5 hrs fasted C57B6 mouse by measuring pharmacodynamic response administered via oral gavage for 30 mins followed by oral fructose challenge and measured upto 180 mins by oral fructose tolerance test; assay type: functional; conditions: dose 30-100 mg/kg, time […]
smiles,measurement,setting,value
C[C@H]1CCN1c1nc(-c2cnn(CC(=O)N3CCNCC3)c2)cc(C(F)(F)F)n1 [LY-3522348],IC50,Ketohexokinase [1],20 nM
same,IC50,Ketohexokinase [2],41 nM
same,IC50,[3],14 nM
same,metabolised at 0.5 h,[4],17%
same,metabolised at 0.5 h,[5],18%
same,metabolised at 0.5 h,[6],28%
same,metabolised at 0.5 h,[7],0%
same,solubility thermodynamic,[8],520 µg/mL
same,LC20,Hepatocyte,> 50000 nM
same,Drug transport,[9],4.4%
same,hepatocyte CLint,[10],2.2 µL/min/1e6 cells
same,hepatocyte CLint,[11],< 1.8 µL/min/1e6 cells
same,hepatocyte CLint,[12],< 1.8 µL/min/1e6 cells
same,AUC at 12 h,[13],7.06 µM·h
same,Cmax,[14],942 nM
same,clearance,[15],6 mL/min/kg
same,half-life,[16],13 h
same,Vd,[17],6.5 L/kg
same,AUC,[18],12.9 µM·h
same,Cmax,[19],3000 nM
same,clearance,[20],3 mL/min/kg
same,half-life,[21],28 h
same,Vd,[22],7.8 L/kg
same,Cmax,[23],717 nM
same,Tmax,[24],4.7 h
same,AUC at 12 h,[25],11.6 µM·h
same,half-life,[26],13 h
same,bioavailability,[27],83%
same,Cmax,[28],657 nM
same,Tmax,[29],1.7 h
same,AUC,[30],23.2 µM·h
same,half-life,[31],37 h
same,bioavailability,[32],87%
same,fraction unbound at 1 µM,[33],0.15
same,fraction unbound at 1 µM,[34],0.18
same,fraction unbound at 1 µM,[35],0.24
same,fraction unbound at 1 µM,[36],0.15
same,Drug uptake,[37],Active
same,Drug uptake,[38],Active
same,Drug uptake,[39],Active
same,Activity,Mus musculus,Dose-Dependent Effect
